In patent US20140121107A1, “HERBICIDAL COMPOSITIONS FOR TOLERANT OR RESISTANT RICE CROPS” (Bayer Intellectual Property GmbH, priority 1998, published 2014):
Where a name gives a salt, the structure may show the parent alone.

Columns and labels:
Type in all cases: in vivo
Cyperus iria = experiment: Herbicidal effect in rice weeds (field trial, Table 6); details: application in the 3-leaf stage, scoring 42 days after application
Protocol: (§1) Transgenic rice plants with a resistance to one or more herbicides (A) together with typical weed plants were grown in the open on 2×5 m plots under natural field conditions; alternatively, weed infestation occurred naturally when the rice plants were grown. Fields were set up for field rice or alternatively also for paddy rice.
(§2) 2, 4, 6 and 8 weeks after the application, the herbicidal activity of the active substances or active substance mixtures was scored visually with reference to the treated plots in comparison to untreated control plots. The damage to, and the development of, all aerial parts of the plants was recorded. Scoring was done on the basis of a percentage sale (100% action=all plants destroyed; 50% action=50% of the plants and green parts of the plants destroyed; 0% action=no recognizable effect=like control plot. The mean of the score values of in each case 4 plots was calculated.

Echinochloa crus galli [1] = experiment: Herbicidal effect in rice weeds (field trial, Table 9); details: application in the 5-6-leaf stage, scoring 36 days after application
Protocol: as §1
(§3) […] The damage to, and the development of, all aerial parts of the plants was recorded. Scoring was done on the basis of a percentage sale (100% action=all plants destroyed; 50% action=50% of the plants and green parts of the plants destroyed; 0% action=no recognizable effect=like control plot. The mean of the score values of in each case 4 plots was calculated.

Cyperus difformis [2] = experiment: Herbicidal effect in rice weeds (field trial, Table 5); details: application in the 3-leaf stage, scoring 36 days after application
Protocol: as §1, §3

Echinochloa crus-galli [3] = experiment: Herbicidal effect in rice broad-leaved weeds (Table 2); details: application in the 3-4-leaf stage, scoring 2 weeks after application
Protocol: as §1, §2

Ipomoea sp. = experiment: Herbicidal effect in rice weeds (Table 3); details: application in the 4-leaf stage, scoring 2 weeks after application
Protocol: as §1, §2

Cyperus difformis [4] = experiment: Herbicidal effect in rice weeds (field trial, Table 10); details: 15 g A.S./ha; application in the 7-leaf stage; scoring 36 days after application
Protocol: as §1
The damage to, and the development of, all aerial parts of the plants was recorded.

Echinochloa crus galli [5] = experiment: Herbicidal effect in rice weeds (field trial, Table 7); details: application in the 3-leaf stage, scoring 42 days after application
Protocol: as §1, §2

Echinochloa crus galli [6] = experiment: Herbicidal effect in rice weeds (field trial, Table 4); details: application in the 4-leaf stage, scoring 42 days after application
Protocol: as §1, §2

Aeschynomene rudis = experiment: Herbicidal effect in rice weeds (field trial, Table 8); details: application in the 3-leaf stage, scoring 28 days after application
Protocol: as §1, §2

Echinochloa crus-galli [7] = experiment: Herbicidal effect in rice weeds (field trial, Table 11); details: application in the 4-leaf stage, scoring 26 days after application
Protocol: as §1, §2

## O=C(O)COc1ccc(Cl)cc1Cl [(B2.1), (2,4-dichlorophenoxy)acetic acid]
Cyperus iria; 500 g A.S./ha
  Herbicidal action (%) against Cyperus iria: 62%

## CCN(CC)C(=O)SCc1ccc(Cl)cc1 [(B1.2), S-4-chlorobenzyl diethylthiocarbamate]
Cyperus iria; 1500 g A.S./ha
  Herbicidal action (%) against Cyperus iria: 57%

## CCSC(=O)N1CCCCCC1 [(B1.1), S-ethyl azepane-1-thiocarboxylate]
Echinochloa crus galli [1]; 4480 g A.S./ha
  Herbicidal action (%) against Echinochloa crus galli: 0%

## CC(C)Oc1cc(-n2nc(C(C)(C)C)oc2=O)c(Cl)cc1Cl [(B1.21)]
Cyperus iria; 250 g A.S./ha
  Herbicidal action (%) against Cyperus iria: 37%

## COc1cc(OC)nc(NC(=O)NS(=O)(=O)c2c(C(=O)O)cnn2C)n1 [(B2.8), 5-(4,6-dimethoxypyrimidin-2-ylcarbamoylsulfamoyl)-1-methylpyrazole-4-carboxylic acid]
Cyperus difformis [2]; 15 g A.S./ha
  Herbicidal action (%) against Cyperus difformis: 65%

## COC(=O)c1ccccc1CS(=O)(=O)NC(=O)Nc1nc(OC)cc(OC)n1 [(B2.3), methyl 2-[[[[[(4,6-dimethoxy-2-pyrimidinyl)amino]carbonyl]-amino]sulfonyl]methyl]benzoate]
Echinochloa crus-galli [3]; 45 g A.S./ha
  Herbicidal action (%) against Echinochloa crus-galli: 0%
Cyperus difformis [2]; 35 g A.S./ha
  Herbicidal action (%) against Cyperus difformis: 55%
Cyperus difformis [2]; 70 g A.S./ha
  Herbicidal action (%) against Cyperus difformis: 87%

## CCC(=O)Nc1ccc(Cl)c(Cl)c1 [(B1.4), N-(3,4-dichlorophenyl)-propanamide]
Ipomoea sp.; 3360 g A.S./ha
  Herbicidal action (%) against Ipomoea sp.: 90%

## CCOc1ccccc1OS(=O)(=O)NC(=O)Nc1nc(OC)cc(OC)n1 [(B2.4), 1-(4,6-dimethoxypyrimidin-2-yl)-3-(2-ethoxyphenoxysutfonyl)urea]
Cyperus difformis [4]
  Herbicidal action (%) against Cyperus difformis: 40%

## O=C(O)c1c(Cl)ccc2cc(Cl)cnc12 [(B1.3), 3,7-dichloroquinoline-8-carboxylic acid]
Echinochloa crus galli [5]; 560 g A.S./ha
  Herbicidal action (%) against Echinochloa crus galli: 25%

## CP(=O)(O)CCC(N)C(=O)O (centres unmarked) [(A1.2), glufosinate-monoammonium salt]
Echinochloa crus-galli [3]; 400 g A.S./ha
  Herbicidal action (%) against Echinochloa crus-galli: 93%
Ipomoea sp.; 400 g A.S./ha
  Herbicidal action (%) against Ipomoea sp.: 93%
Echinochloa crus galli [6]; 250 g A.S./ha
  Herbicidal action (%) against Echinochloa crus galli: 63%
Echinochloa crus galli [6]; 500 g A.S./ha
  Herbicidal action (%) against Echinochloa crus galli: 87%
Cyperus difformis [2]; 400 g A.S./ha
  Herbicidal action (%) against Cyperus difformis: 18%
Cyperus difformis [2]; 500 g A.S./ha
  Herbicidal action (%) against Cyperus difformis: 40%
Cyperus iria; 400 g A.S./ha
  Herbicidal action (%) against Cyperus iria: 35%
Echinochloa crus galli [5]; 400 g A.S./ha
  Herbicidal action (%) against Echinochloa crus galli: 65%
Aeschynomene rudis; 250 g A.S./ha
  Herbicidal action (%) against Aeschynomene rudis: 65%
Aeschynomene rudis; 500 g A.S./ha
  Herbicidal action (%) against Aeschynomene rudis: 83%
Echinochloa crus galli [1]; 500 g A.S./ha
  Herbicidal action (%) against Echinochloa crus galli: 18%
Echinochloa crus-galli [7]; 250 g A.S./ha
  Herbicidal action (%) against Echinochloa crus-galli: 35%
Echinochloa crus-galli [7]; 500 g A.S./ha
  Herbicidal action (%) against Echinochloa crus-galli: 75%

## CCC(CC)Nc1c([N+](=O)[O-])cc(C)c(C)c1[N+](=O)[O-] [(B1.5), N-(1-ethylpropyl)-2,6-dinitro-3,4-xylidine]
Cyperus iria; 1000 g A.S./ha
  Herbicidal action (%) against Cyperus iria: 33%

## CCc1cnc(C2=NC(C)(C(C)C)C(=O)N2)c(C(=O)O)c1 (centres unmarked) [(A3.2), imazethapyr]
Echinochloa crus galli [1]; 75 g A.S./ha
  Herbicidal action (%) against Echinochloa crus galli: 67%

## Cc1nn(-c2cc(CC(Cl)C(=O)O)c(Cl)cc2F)c(=O)n1C(F)F (racemic) [(B2.13), (RS)-2-chloro-3-[2-chloro-5-(4-difluoromethyl-4,5-dihydro-3-methyl-5-oxo-1H-1,2,4-triazol-1-yl)-4-fluorophenyl]propionic acid]
Cyperus difformis [2]; 50 g A.S./ha
  Herbicidal action (%) against Cyperus difformis: 28%

## CCCC(=NOCC(C)Oc1ccc(Cl)cc1)C1=C(O)CC(C2CCCSC2)CC1=O (centres unmarked) [(B4.4)]
Echinochloa crus-galli [7]; 37.5 g A.S./ha
  Herbicidal action (%) against Echinochloa crus-galli: 50%
Echinochloa crus-galli [7]; 75 g A.S./ha
  Herbicidal action (%) against Echinochloa crus-galli: 83%

## COc1nc(C)nc(NC(=O)NS(=O)(=O)c2ccccc2C(=O)O)n1 [(B2.5), 2-[[[[(4-methoxy-6-methyl-1,3,5-triazin-2-yl)amino]carbonyl]amino]sulfonyl]benzoic acid]
Cyperus iria; 1 g A.S./ha
  Herbicidal action (%) against Cyperus iria: 35%

## CCS(=O)(=O)Oc1ccc2c(c1)C(C)(C)CO2 [(B2.15), 2,3-dihydro-3,3-dimethylbenzofuran-5-yl ethanesulfonate]
Cyperus difformis [2]; 200 g A.S./ha
  Herbicidal action (%) against Cyperus difformis: 35%

## CC1(C)CON(Cc2ccccc2Cl)C1=O [(B1.12), 2-(2-chlorobenzyl)-4,4-dimethyl-1,2-oxazolidin-3-one]
Echinochloa crus galli [6]; 400 g A.S./ha
  Herbicidal action (%) against Echinochloa crus galli: 7%
